These results are taken from ChEMBL document CHEMBL4177639, “Acacetin inhibits neuronal cell death induced by 6-hydroxydopamine in cellular Parkinson's disease model” (Bioorg Med Chem Lett, 2017).

Structures are written as SMILES. Active and inactive are the calls of the source. The calls are words filed in the database; no cut-off is given here.

In data set [1] the test system is SH-SY5Y. Briefly: Neuroprotective activity against 6-OHDA induced toxicity in human SH-SY5Y cells assessed as reduction in cell viability pretreated for 30 mins followed by 6-OHDA addition after 24 hrs by MTT assay. In kind it is functional, cell-based. (Tetrazolium assays rely on reduction of a dye to a coloured formazan, in cell work by metabolically active cells.)

In data set [2] the test system is SH-SY5Y. Briefly: Neuroprotective activity against 6-OHDA induced apoptosis in human SH-SY5Y cells assessed as reduction in cleaved caspase-9 level at 2.5 to 10 uM pretreated for 1 hr followed by 6-OHDA addition after 6 to 24 hrs by Western blot analysis. Format: functional, cell-based.
Data set [3] relates to SH-SY5Y. The data set can be described thus: Neuroprotective activity against 6-OHDA induced apoptosis in human SH-SY5Y cells assessed as reduction in cleaved PARP level at 2.5 to 10 uM pretreated for 1 hr followed by 6-OHDA addition after 6 to 24 hrs by Western blot analysis. Format: functional, cell-based. In general terms: Immunoblotting shows a protein as a band on a membrane.

The test system of data set [4] is SH-SY5Y. Briefly: Neuroprotective activity against 6-OHDA induced apoptosis in human SH-SY5Y cells assessed as reduction in Bax expression pretreated for 1 hr followed by 6-OHDA addition after 6 to 24 hrs by Western blot analysis. In kind it is functional, cell-based.
Data set [5] concerns SH-SY5Y. Briefly: Neuroprotective activity against 6-OHDA induced toxicity in human SH-SY5Y cells assessed as reduction in nuclear fragmentation at 2.5 to 10 uM pretreated for 1 hr followed by 6-OHDA addition after 24 hrs by Hoechst 33258/propidium iodide staining based fluorescence microscopic analysis. Format: functional, cell-based.
In data set [6] the test system is SH-SY5Y. Briefly: Neuroprotective activity against 6-OHDA induced apoptosis in human SH-SY5Y cells assessed as increase in Bcl-2 expression pretreated for 1 hr followed by 6-OHDA addition after 6 to 24 hrs by Western blot analysis. Format: functional, cell-based.
Data set [7] addresses MAP kinase p38 (Homo sapiens) (UniProt O15264+Q15759+Q16539+P53778). The note with it: SH-SY5Y, 2.5 to 10 uM.
Description: Inhibition of 6-OHDA induced p38 phosphorylation in human SH-SY5Y cells at 2.5 to 10 uM pretreated for 1 hr followed by 6-OHDA addition after 1 hr by Western blot analysis
Data set [8] concerns SH-SY5Y. Briefly: Neuroprotective activity against 6-OHDA induced apoptosis in human SH-SY5Y cells assessed as reduction in cytochrome-c level pretreated for 1 hr followed by 6-OHDA addition after 6 to 24 hrs by Western blot analysis. In kind it is functional, cell-based.
Data set [9] deals with c-Jun N-terminal kinase, JNK (Homo sapiens) (UniProt P45983+P53779+P45984). Briefly: Inhibition of 6-OHDA induced JNK phosphorylation in human SH-SY5Y cells at 2.5 to 10 uM pretreated for 1 hr followed by 6-OHDA addition after 1 hr by Western blot analysis. Format: cell-based.
For data set [10], the system named is SH-SY5Y. Briefly: Neuroprotective activity against 6-OHDA induced toxicity in human SH-SY5Y cells assessed as reduction in LDH release pretreated for 30 mins followed by 6-OHDA addition after 24 hrs by spectrophotometric method. In kind it is functional, cell-based. (In general: LDH leaks from cells whose membrane has failed.)
Data set [11] relates to SH-SY5Y. The data set can be described thus: Cytotoxicity against human SH-SY5Y cells assessed as effect on cell viability at 0.5 to 10 uM after 24 hrs by MTT assay. In kind it is cell-based.
Data set [12] concerns SH-SY5Y. The data set can be described thus: Neuroprotective activity against 6-OHDA induced toxicity in human SH-SY5Y cells assessed as reduction in nuclear necrosis at 2.5 to 10 uM pretreated for 1 hr followed by 6-OHDA addition after 24 hrs by Hoechst 33258/propidium iodide staining based fluorescence microscopic analysis. Format: functional, cell-based.
Data set [13] deals with SH-SY5Y. Briefly: Neuroprotective activity against 6-OHDA induced apoptosis in human SH-SY5Y cells assessed as reduction in cleaved caspase-3 level at 2.5 to 10 uM pretreated for 1 hr followed by 6-OHDA addition after 6 to 24 hrs by Western blot analysis. In kind it is functional, cell-based.
Data set [14] deals with Glycogen synthase kinase-3 beta (Homo sapiens) (UniProt P49841). Briefly: Inhibition of 6-OHDA induced GSK3beta phosphorylation in human SH-SY5Y cells at 2.5 to 10 uM pretreated for 1 hr followed by 6-OHDA addition after 1 hr by Western blot analysis. In kind it is cell-based.
Sequence of Glycogen synthase kinase-3 beta (Homo sapiens) (P49841 whole entry, looked up): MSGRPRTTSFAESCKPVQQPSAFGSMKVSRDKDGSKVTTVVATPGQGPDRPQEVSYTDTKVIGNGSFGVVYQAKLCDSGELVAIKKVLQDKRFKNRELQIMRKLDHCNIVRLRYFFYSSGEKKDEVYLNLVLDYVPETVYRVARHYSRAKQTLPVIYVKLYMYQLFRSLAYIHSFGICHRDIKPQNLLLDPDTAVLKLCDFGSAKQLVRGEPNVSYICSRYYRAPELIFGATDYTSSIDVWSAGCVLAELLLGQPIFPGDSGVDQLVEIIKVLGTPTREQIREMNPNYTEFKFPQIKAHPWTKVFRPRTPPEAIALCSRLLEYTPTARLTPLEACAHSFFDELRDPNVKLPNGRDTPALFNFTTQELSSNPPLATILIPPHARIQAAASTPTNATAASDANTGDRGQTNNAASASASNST
In data set [15] the test system is SH-SY5Y. The data set can be described thus: Neuroprotective activity against 6-OHDA induced toxicity in human SH-SY5Y cells assessed as reduction in nuclear condensation at 2.5 to 10 uM pretreated for 1 hr followed by 6-OHDA addition after 24 hrs by Hoechst 33258/propidium iodide staining based fluorescence microscopic analysis. Format: functional, cell-based.

In data set [16] the target is Mitogen-activated protein kinase; ERK1/ERK2 (Homo sapiens) (UniProt P27361+P28482). The data set can be described thus: Inhibition of 6-OHDA induced ERK1/2 phosphorylation in human SH-SY5Y cells at 2.5 to 10 uM pretreated for 1 hr followed by 6-OHDA addition after 1 hr by Western blot analysis. In kind it is cell-based.
Sequence of Mitogen-activated protein kinase; ERK1/ERK2 (Homo sapiens) (P27361 whole entry, looked up): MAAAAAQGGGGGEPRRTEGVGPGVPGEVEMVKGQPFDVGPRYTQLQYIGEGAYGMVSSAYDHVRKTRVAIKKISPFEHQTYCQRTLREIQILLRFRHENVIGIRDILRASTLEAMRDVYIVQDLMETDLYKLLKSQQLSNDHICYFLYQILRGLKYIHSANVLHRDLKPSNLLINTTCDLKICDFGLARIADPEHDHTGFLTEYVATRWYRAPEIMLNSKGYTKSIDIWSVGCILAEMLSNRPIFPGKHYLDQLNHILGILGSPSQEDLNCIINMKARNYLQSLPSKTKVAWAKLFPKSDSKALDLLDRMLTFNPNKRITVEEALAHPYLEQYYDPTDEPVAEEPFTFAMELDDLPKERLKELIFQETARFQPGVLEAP
Sequence of Mitogen-activated protein kinase; ERK1/ERK2 (Homo sapiens) (P28482 whole entry, looked up): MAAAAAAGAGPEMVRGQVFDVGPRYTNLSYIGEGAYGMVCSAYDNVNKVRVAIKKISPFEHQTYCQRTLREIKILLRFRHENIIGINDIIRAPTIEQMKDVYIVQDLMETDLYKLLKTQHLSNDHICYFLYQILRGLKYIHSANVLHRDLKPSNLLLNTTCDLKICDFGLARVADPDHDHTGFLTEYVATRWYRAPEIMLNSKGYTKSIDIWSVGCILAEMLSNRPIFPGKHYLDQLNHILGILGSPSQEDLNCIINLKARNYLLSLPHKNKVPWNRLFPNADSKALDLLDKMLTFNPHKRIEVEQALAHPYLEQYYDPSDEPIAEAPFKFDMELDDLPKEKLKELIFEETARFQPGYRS
The subject of data set [17] is SH-SY5Y. Briefly: Neuroprotective activity against 6-OHDA induced toxicity in human SH-SY5Y cells assessed as reduction in intracellular ROS accumulation at 1 to 10 uM pretreated for 1 hr followed by 6-OHDA addition after 1 to 6 hrs by DCFH-DA dye based fluorescence spectrophotometric method. In kind it is functional, cell-based.
For data set [18], the system named is SH-SY5Y. Briefly: Neuroprotective activity against 6-OHDA induced toxicity in human SH-SY5Y cells assessed as reduction in mitochondrial membrane potential loss at 1 to 10 uM pretreated for 1 hr followed by 6-OHDA addition after 1 to 6 hrs by rhodamine123 dye based fluorescence microscopic analysis. Format: functional, cell-based.
The test system of data set [19] is SH-SY5Y. The data set can be described thus: Neuroprotective activity against 6-OHDA induced toxicity in human SH-SY5Y cells assessed as reduction in cell shrinkage at 2.5 to 10 uM pretreated for 1 hr followed by 6-OHDA addition after 24 hrs by Hoechst 33258/propidium iodide staining based fluorescence microscopic analysis. In kind it is functional.
Data set [20] has as its target RAC-alpha serine/threonine-protein kinase (Homo sapiens) (UniProt P31749). The data set can be described thus: Inhibition of 6-OHDA induced AKT phosphorylation in human SH-SY5Y cells at 2.5 to 10 uM pretreated for 1 hr followed by 6-OHDA addition after 1 hr by Western blot analysis. Format: cell-based.
The test system of data set [21] is SH-SY5Y. The data set can be described thus: Cytotoxicity against human SH-SY5Y cells assessed as reduction in LDH release at 0.5 to 10 uM after 24 hrs by spectrophotometric method. Format: cell-based.

Sequence of RAC-alpha serine/threonine-protein kinase (Homo sapiens) (P31749 whole entry): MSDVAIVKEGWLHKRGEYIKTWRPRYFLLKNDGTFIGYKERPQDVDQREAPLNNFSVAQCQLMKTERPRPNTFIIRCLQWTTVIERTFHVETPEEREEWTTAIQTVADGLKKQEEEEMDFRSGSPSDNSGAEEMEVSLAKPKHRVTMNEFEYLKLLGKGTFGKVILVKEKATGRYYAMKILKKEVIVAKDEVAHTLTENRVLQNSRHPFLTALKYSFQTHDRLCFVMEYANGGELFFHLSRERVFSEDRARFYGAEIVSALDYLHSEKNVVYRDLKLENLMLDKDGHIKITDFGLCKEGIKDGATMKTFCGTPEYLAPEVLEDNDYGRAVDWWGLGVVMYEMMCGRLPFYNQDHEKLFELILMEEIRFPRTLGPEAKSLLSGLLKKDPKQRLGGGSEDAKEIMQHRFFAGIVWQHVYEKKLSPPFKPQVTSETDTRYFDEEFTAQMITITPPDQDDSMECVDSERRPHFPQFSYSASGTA

With `COc1ccc(-c2cc(=O)c3c(O)cc(O)cc3o2)cc1` [ACACETIN], the Activity entry in data set [1] is “Dose-dependent effect”; in [4] it was “Dose-dependent effect”; in [6] it was “Dose-dependent effect”; in [8], “Dose-dependent effect”; in data set [10] it was “Dose-dependent effect”; in data set [11], “Non-Toxic”. Besides, the Activity entry in data set [21] was “Non-Toxic”. Also, the result in data set [2], in data set [3], in [5], in data set [12], in [13] and in data set [15] was Active. Besides, the result in data set [17], in data set [18] and in data set [19] was Active. The inhibition result in [7], in data set [9], in data set [14] and in data set [20] was “Active” in each case. For the same molecule, the inhibition result in [16] was “inactive”.
